{
  "source": "PubChem BioAssay AID2305",
  "about": "(GlaxoSmithKline (GSK), 2010)",
  "data": [
    {"system": "P. falciparum 3D7 growth, pLDH absorbance", "experiment": "blood-stage malaria parasite growth potency – strain 3D7, dose response (AID 2305)", "units": {"IC50": "nM"}, "values": [
      {"molecule": "CCOc1cc(C(=O)NCCN(CC)c2cccc(C)c2)ccc1-c1nc2ccc(Cl)cc2[nH]1", "IC50": 810},
      {"molecule": "COc1ccccc1CCNc1nc(C)cc(NCCC(=O)Nc2ccccc2)n1", "IC50": 810},
      {"molecule": "N=C(N)c1ccc2nc(SCc3ccccc3)[nH]c2c1", "IC50": 690},
      {"molecule": "c1ccc2cc3c(Nc4ccc(N5CCCCC5)cc4)ccnc3cc2c1", "IC50": 740},
      {"molecule": "O=C(NC1CCCCC1)c1ccc(O)c(-c2cccc(C(F)(F)F)c2)c1", "IC50": 710},
      {"molecule": "CCn1c(Cc2ccccc2)nnc1Sc1ccc([N+](=O)[O-])c(C#N)c1", "IC50": 1010},
      {"molecule": "O=C(/C=C/c1ccc(Cl)c(Cl)c1)N1CCC(CCN2CCC(c3c[nH]c4cnccc34)CC2)CC1", "IC50": 120},
      {"molecule": "CCCCCCCN1CC[C@@H](CCCc2ccnc3ccc(OCCC4CCNCC4)cc23)[C@@H](CC)C1", "IC50": 610},
      {"molecule": "O=C(Nc1ccc(OC2CCN(Cc3ccccc3)C2)c(Cl)c1)c1ccsc1", "note": "(stereo not given)", "IC50": 730},
      {"molecule": "COc1ccc(Nc2nccc(N3CCC(NC(=O)Nc4cc(C)ccc4C)C3)n2)cc1", "note": "(stereo not given)", "IC50": 900},
      {"molecule": "O=C(/C=C/c1ccc(Cl)c(Cl)c1)NCCCCCCN1CCN(C(=O)Nc2ccc(Cl)c(Cl)c2)CC1", "IC50": 930},
      {"molecule": "Cc1cccc(C(=O)NC(NC(=S)Nc2ccc([N+](=O)[O-])cc2)C(Cl)(Cl)Cl)c1", "note": "(stereo not given)", "IC50": 740},
      {"molecule": "N=C(N)c1ccc(OCCCCCOc2ccc(C(=N)N)cc2)cc1", "IC50": 140},
      {"molecule": "CC(=O)NCCNc1nccc(N2CCc3ncnc(Nc4ccc(OCc5ccccn5)c(Cl)c4)c3C2)n1", "IC50": 820},
      {"molecule": "Cc1nc(-c2cccc(NCc3ccccc3)c2)[nH]c1C", "IC50": 860},
      {"molecule": "COc1cccc(C(O)CNc2ccnc(Nc3cccc(-c4csc(C)n4)c3)n2)c1", "note": "(stereo not given)", "IC50": 790},
      {"molecule": "O=S(=O)(Nc1cccc(CCN2CCCCC2CCN2CCCC2)c1)c1ccc(Oc2ccccc2)cc1", "note": "(stereo not given)", "IC50": 1050},
      {"molecule": "c1ccc2c(NCCCCCCNc3ccnc4ccccc34)ccnc2c1", "IC50": 190},
      {"molecule": "Nc1c2c(nc3ccc(NC(=O)CCCc4ccccc4)cc13)CCCC2", "IC50": 430},
      {"molecule": "CC(C)CN(c1nc(C(=O)NNC(=O)[C@H](CC2CC2)NC(=O)c2cc3cc(OCCN4CCCCC4)ccc3o2)cs1)C1CC1", "IC50": 210},
      {"molecule": "Cc1ccc2nc(C)cc(NN=Cc3cccc(Cl)c3)c2c1", "IC50": 740},
      {"molecule": "N#Cc1ccc(Sc2nnc(-c3ccccc3Cl)n2CC2CCCCC2)cc1[N+](=O)[O-]", "IC50": 1160},
      {"molecule": "COc1ccc(Nc2nccc(NCCNC(=O)Nc3ccccc3F)n2)cc1", "IC50": 1320},
      {"molecule": "O=C(NCc1ccccc1)NC(CCCN1CCC(Oc2cccc(Cl)c2)CC1)c1ccc(Cl)c(Cl)c1", "note": "(stereo not given)", "IC50": 860},
      {"molecule": "Cc1ccn2cc(-c3ccc(NC(=O)c4ccc(Br)o4)cc3)nc2c1", "IC50": 740},
      {"molecule": "CCN(CC)CCN(Cc1ccc(-c2ccc(C(F)(F)F)cc2)cc1)C(=O)Cn1c(CCc2ccc(F)c(F)c2F)nc(=O)c2cccnc21", "IC50": 1130},
      {"molecule": "c1ccc(-n2cncn2)cc1", "IC50": 590},
      {"molecule": "CC(C)N1CCC(N(Cc2ccc(-c3ccc(C(F)(F)F)cc3)cc2)C(=O)CCCn2c(CCc3cccc(F)c3F)nc(=O)c3ccccc32)CC1", "IC50": 970},
      {"molecule": "CN1CCC(c2csc3ccc(NC(=O)Nc4ccc(-c5ccncc5)c5ccccc45)cc23)CC1", "IC50": 1020},
      {"molecule": "CCCOc1ccc(CCNCCCCNCCc2ccc(OCCC)c3ccccc23)c2ccccc12", "IC50": 920},
      {"molecule": "CCCCCCN(CCCCCC)CC(O)c1cc(-c2ccc(Cl)cc2)nc2c(C)cc(C)cc12", "note": "(stereo not given)", "IC50": 70},
      {"molecule": "O=C(NC1CCCCC1)N(CCCn1ccnc1)Cc1csc(-c2ccc(CNCc3ccccc3)cc2)n1", "IC50": 840},
      {"molecule": "O=C(NC1CCC(CN2CCC(c3c[nH]c4ccccc34)CC2)CC1)c1ccc(-c2ccccc2[N+](=O)[O-])o1", "note": "(stereo not given)", "IC50": 770},
      {"molecule": "COc1cc(CCOc2c(C)nc(N)nc2N)cc(OC)c1OC", "IC50": 20},
      {"molecule": "Cc1sc2nc(CSc3ccccc3)nc(N3CCN(CC(=O)N4CCCC4)CC3)c2c1C", "IC50": 1260},
      {"molecule": "CCOc1ccc(-c2nonc2NC(=O)c2cccs2)cc1OCC", "IC50": 760},
      {"molecule": "CS(=O)(=O)c1ccc(-n2nc(C(F)(F)F)cc2-c2ccc(/C=N/OCC(=O)O)o2)cc1", "IC50": 980},
      {"molecule": "O=C(NCc1ccccc1)NC1CCN(c2ccnc3cc(Cl)ccc23)C1", "note": "(stereo not given)", "IC50": 160},
      {"molecule": "CCCCCNc1ccnc2cc(Cl)ccc12", "IC50": 510},
      {"molecule": "COc1cc2cc(C(=O)Nc3ccccc3)c(N)nc2cc1OC", "IC50": 1130}
    ]}
  ]
}
